This passage reports DC50, EC50 and IC50 results from US20230391772A1, “METHODS AND COMPOSITIONS FOR TARGETED PROTEIN DEGRADATION” (Ranok Therapeutics (Hangzhou) Co. Ltd., priority 2020, published 2023).

In general, DC50 refers to the midpoint of the concentration-degradation curve. Higher therefore signals degradation only at high concentration. Usually EC50 stands for the concentration giving half of the maximal effect. Higher therefore signals lower potency in that assay.

Experiment [1] deals with T1, KRAS(G12C) (Homo sapiens, UniProt P01116, G12C). In words: KRAS(G12C) Western blot protein degradation assay in LU65A cells. Set-up: LU65A human lung cancer cell line, which expresses KRAS(G12C); host or cells: LU65A. In kind it is cell-based. The note with it: 6 hr. The procedure:
The following cancer cell lines were employed: BT-474 human breast carcinoma (ATCC, #HTB-20); MIA PaCa-2 human pancreatic carcinoma [2 copies KRAS(G12C)](ATCC, #CRL-1420); NCI-H23 human non-small cell lung cancer [1 copy KRAS(G12C)](ATCC, #CRL-5800); NCI-H358 human non-small cell lung cancer [1 copy KRAS(G12C)](ATCC, #CRL-5807); LU65A human lung carcinoma (Pharmaron, Beijing, China). Cell lines were cultured essentially according to ATCC and Pharmaron recommendations.
KRAS(G12C) Western Blot Protein Degradation Assay
The MIA PaCa-2 human pancreatic carcinoma cell line and LU65A human lung cancer cell line, which expresses KRAS(G12C), were seeded in 6- or 12-well tissue culture plates, and after 1 hr, test compounds were added at various concentrations and incubated at 37° C./5% CO2 for 48 hr (MIA Paca-2) and 6 hr (LU65A) respectively. Cells were then washed with cold PBS, aspirated and cold RIPA buffer containing a protease/phosphatase inhibitor cocktail was added to lyse cells. After centrifugation, the total protein concentrations of cell lysates were determined using the BCA protein assay. Samples were normalized for equivalent protein concentrations, 5×SDS-PAGE loading buffer added and denatured at 100° C. for 10 min. 20 μl of each sample/well was loaded on a SDS-PAGE gel and electrophoresed for 20 min at 80 V, then 120 V for 1.5 hr. Gels were then electroblotted to nitrocellulose membranes using a wet-transfer method at 250 mA for 2.5 hr. Membranes were incubated with blocking buffer for 1 hr and washed 3 times with TBST for 5 min. Membranes were then incubated with anti-KRAS (Sigma-Aldrich, #SAB1404011) and anti-β-Actin monoclonal antibodies (Cell Signaling Technology, #3700) diluted in blocking buffer at 4° C. overnight per the manufacturer's recommendations. After washing 3 times, blots were incubated with appropriately labeled secondary antibodies for 1 hr at room temperature and washed again. Fluorescence imaging and quantitation was performed using a LI-COR Odyssey. Results was analyzed using GraphPad Prism 7 software. Compound degradation of was determined by the following equation and DC50 values (the concentration at which 50% of the maximal degradation of KRAS occurs) calculated using GraphPad Prism 7 software:
% Inhibition=100−(D−B)/(S−B)*100%. • S: Fluorescence intensity of cells with antibody • D: Fluorescence intensity of compound-treated cells with antibody • B: Fluorescence intensity of cells without antibody
On the technique in general: In western blotting, separated proteins are transferred to a membrane and probed.

Experiment [2] deals with MIA PaCa-2 human pancreatic carcinoma. Briefly: MIA PaCa-2 CCK-8 proliferation assay. In kind it is cell-based. The settings on record: Homo sapiens, MIA PaCa-2, 72 h, MIA PaCa-2 cells. An outline of the steps:
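CCK-8 absorbance readout; % inhibition = 100 − (compound − blank)/(DMSO − blank) × 100, blank = medium + DMSO, no cells. Dose range 20 μM down to 1.02 nM, 3-fold steps. KRAS(G12C) copy number: MIA PaCa-2 2; NCI-H358 1; NCI-H23 1.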
On the technique in general: Tetrazolium assays rely on reduction of a dye to a coloured formazan, in cell work by metabolically active cells.

The target in experiment [3] is T1, KRAS(G12C). Briefly: KRAS(G12C)/SOS1 homogeneous time-resolved fluorescence (HTRF) assay. The settings on record: absence of GTP, 4° C. for 3 hr, read-out: KRAS (G12C) binding. Further details: purchased Cisbio 63ADK000CB16PEG. An outline of the steps:
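Three-hour incubation at 4 °C of 3-fold compound dilutions (lowest 1.02 nM) with KRAS(G12C), SOS1 and detection reagents, GTP absent. Disruption of the KRAS(G12C)/SOS1 complex detected by time-resolved fluorescence.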
In general terms: Time-resolved FRET reads energy transfer from a long-lived donor to a nearby acceptor.

T1 sequence (P01116 1-188 isoform P01116-2 G12C): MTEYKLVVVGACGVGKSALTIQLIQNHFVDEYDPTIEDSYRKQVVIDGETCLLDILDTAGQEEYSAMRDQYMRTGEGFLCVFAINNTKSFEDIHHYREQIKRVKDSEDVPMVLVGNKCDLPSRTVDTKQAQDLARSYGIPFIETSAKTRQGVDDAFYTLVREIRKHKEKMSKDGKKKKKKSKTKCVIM

For `C=CC(=O)N1CCN(c2nc(OCCN3CCC(N4CCN(Cc5ccc(-n6c(O)nnc6-c6cc(C)c(O)cc6O)cc5)CC4)CC3)nc3c2CCN(c2cccc4cccc(Cl)c24)C3)C[C@@H]1CC#N` [Compound 236, (S)-2-(1-acryloyl-4-(7-(8-chloronaphthalen-1-yl)-2-(2-(4-(4-(4-(3-(2,4-dihydroxy-5-methylphenyl)-5-hydroxy-4H-1,2,4-triazol-4-yl)benzyl)piperazin-1-yl)piperidin-1-yl)ethoxy)-5,6,7,8-tetrahydropyrido[3,4-d]pyrimidin-4-yl)piperazin-2-yl)acetonitrile], the DC50 on KRAS(G12C) [1] was above 1000 nM. Moreover, in experiment [2], the EC50 is above 1000 nM. In addition, the IC50 on KRAS(G12C) [3] is below 100 nM.
With `C=CC(=O)N1CCN(c2nc(OCCN3CCN(C(=O)C4CCN(Cc5ccc(-n6c(C(=O)NCC(F)(F)F)nnc6-c6cc(C(C)C)c(O)cc6O)cc5)CC4)C[C@H]3CN(C)C)nc3c2CCN(c2cccc4cccc(Cl)c24)C3)C[C@@H]1CC#N` [Compound 266, 4-(4-((4-((R)-4-(2-((4-((S)-4-acryloyl-3-(cyanomethyl)piperazin-1-yl)-7-(8-chloronaphthalen-1-yl)-5,6,7,8-tetrahydropyrido[3,4-d]pyrimidin-2-yl)oxy)ethyl)-3-((dimethylamino)methyl)piperazine-1-carbonyl)piperidin-1-yl)methyl)phenyl)-5-(2,4-dihydroxy-5-isopropylphenyl)-N-(2,2,2-trifluoroethyl)-4H-1,2,4-triazole-3-carboxamide], the DC50 at KRAS(G12C) [1] was 100 to 1000 nM. For the same compound, the EC50 in experiment [2] is above 1000 nM. In addition, the IC50 on KRAS(G12C) [3] is 100 to 1000 nM.
The compound `C=CC(=O)N1CCN(c2nc(OC[C@@H]3C[C@H](N4CCC(C(=O)N5CCN(Cc6ccc(-n7c(O)nnc7-c7cc(C)c(O)cc7O)cc6)CC5)CC4)CN3C)nc3c2CCN(c2cccc4ccccc24)C3)C[C@@H]1CC#N` [Compound 247, 2-[(2S)-4-(2-{[(2S,4S)-4-{4-[4-({4-[3-(2,4-dihydroxy-5-methylphenyl)-5-hydroxy-1,2,4-triazol-4-yl]phenyl}methyl)piperazine-1-carbonyl]piperidin-1-yl}-1-methylpyrrolidin-2-yl]methoxy}-7-(naphthalen-1-yl)-5H,6H,8H-pyrido[3,4-d]pyrimidin-4-yl)-1-(prop-2-enoyl)piperazin-2-yl]acetonitrile] gave a half-maximal degradation concentration (DC50) at KRAS(G12C) [1] above 1000 nM. In experiment [2], this compound returned an EC50 above 1000 nM. Moreover, the IC50 on KRAS(G12C) [3] was below 100 nM.
Take `C=CC(=O)N1CCN(c2nc(OC[C@@H]3CC[C@H](CN4CCN(C(=O)C5CCN(Cc6ccc(-n7c(C(=O)NCC)nnc7-c7cc(C(C)C)c(O)cc7O)cc6)CC5)CC4)N3C)nc3c2CCN(c2cccc4cccc(Cl)c24)C3)C[C@@H]1CC#N` [Compound 240, 4-(4-{[4-(4-{[(2R,5S)-5-({[7-(8-chloronaphthalen-1-yl)-4-[(3S)-3-(cyanomethyl)-4-(prop-2-enoyl)piperazin-1-yl]-5H,6H,8H-pyrido[3,4-d]pyrimidin-2-yl]oxy}methyl)-1-methylpyrrolidin-2-yl]methyl}piperazine-1-carbonyl)piperidin-1-yl]methyl}phenyl)-5-(2,4-dihydroxy-5-isopropylphenyl)-N-ethyl-1,2,4-triazole-3-carboxamide]: on KRAS(G12C) [1], the DC50 lay in the range of 100 to 1000 nM. Besides, the concentration for a half-maximal effect (EC50) in experiment [2] was below 100 nM. Also, on KRAS(G12C) [3], the IC50 was below 100 nM.
`C=CC(=O)N1CCN(c2nc(OC[C@@H]3C[C@H](N4CCN(CC5CCN(Cc6ccc7c(c6)CN(C(=O)c6cc(C(C)C)c(O)cc6O)C7)CC5)CC4)CN3C)nc3c2CCN(c2cccc4cccc(Cl)c24)C3)C[C@@H]1CC#N` [Compound 290, 2-[(2S)-4-[7-(8-chloronaphthalen-1-yl)-2-{[(2S,4S)-4-{4-[(1-{[2-(2,4-dihydroxy-5-isopropylbenzoyl)-1,3-dihydroisoindol-5-yl]methyl}piperidin-4-yl)methyl]piperazin-1-yl}-1-methylpyrrolidin-2-yl]methoxy}-5H,6H,8H-pyrido[3,4-d]pyrimidin-4-yl]-1-(prop-2-enoyl)piperazin-2-yl]acetonitrile]: on KRAS(G12C) [1], the DC50 was above 1000 nM. In addition, the EC50 in experiment [2] is below 100 nM. In addition, the IC50 on KRAS(G12C) [3] was below 100 nM.
In the case of `C=CC(=O)N1CCN(c2nc(OC[C@@H]3C[C@H](N4CCN(C(=O)C5CCN(Cc6ccc(-n7c(C(=O)NCC)nnc7-c7cc(C(C)C)c(O)cc7O)cc6)CC5)CC4)CN3C)nc3c2CCN(c2cccc4cccc(Cl)c24)C3)C[C@@H]1CC#N` [Compound 283, 4-{4-[(4-{4-[(3S,5S)-5-({[7-(8-chloronaphthalen-1-yl)-4-[(3S)-3-(cyanomethyl)-4-(prop-2-enoyl)piperazin-1-yl]-5H,6H,8H-pyrido[3,4-d]pyrimidin-2-yl]oxy}methyl)-1-methylpyrrolidin-3-yl]piperazine-1-carbonyl}piperidin-1-yl)methyl]phenyl}-5-(2,4-dihydroxy-5-isopropylphenyl)-N-ethyl-1,2,4-triazole-3-carboxamide], the DC50 on KRAS(G12C) [1] is below 100 nM. This compound came in with a concentration giving a half-maximal response (EC50) in experiment [2] of 100 to 1000 nM. The IC50 on KRAS(G12C) [3] is below 100 nM.
On KRAS(G12C) [1], `C=CC(=O)N1CCN(c2nc(OC[C@@H]3CC[C@H](CN4CCN(C(=O)C5CCN(Cc6ccc(-n7c(C(=O)NCC)nnc7-c7cc(C(C)C)c(O)cc7O)cc6)CC5)CC4)N3C)nc3c2CCN(c2cccc4ccc(F)c(Cl)c24)C3)C[C@@H]1CC#N` [Compound 269, 4-(4-{[4-(4-{[(2R,5S)-5-({[7-(8-chloro-7-fluoronaphthalen-1-yl)-4-[(3S)-3-(cyanomethyl)-4-(prop-2-enoyl)piperazin-1-yl]-5H,6H,8H-pyrido[3,4-d]pyrimidin-2-yl]oxy}methyl)-1-methylpyrrolidin-2-yl]methyl}piperazine-1-carbonyl)piperidin-1-yl]methyl}phenyl)-5-(2,4-dihydroxy-5-isopropylphenyl)-N-ethyl-1,2,4-triazole-3-carboxamide] returned a DC50 above 1000 nM. Also, the EC50 in experiment [2] was below 100 nM. Further, the IC50 on KRAS(G12C) [3] was below 100 nM.
As for `C=CC(=O)N1CCN(c2nc(OC[C@@H]3CC[C@H](CN4CCN(Cc5ccc(-n6c(C(=O)NCC)nnc6-c6cc(C(C)C)c(O)cc6O)cc5)CC4)N3C)nc3c2CCN(c2cccc4cccc(C)c24)C3)C[C@@H]1CC#N` [Compound 289, 4-{4-[(4-{[(2R,5S)-5-[({4-[(3S)-3-(cyanomethyl)-4-(prop-2-enoyl)piperazin-1-yl]-7-(8-methylnaphthalen-1-yl)-5H,6H,8H-pyrido[3,4-d]pyrimidin-2-yl}oxy)methyl]-1-methylpyrrolidin-2-yl]methyl}piperazin-1-yl)methyl]phenyl}-5-(2,4-dihydroxy-5-isopropylphenyl)-N-ethyl-1,2,4-triazole-3-carboxamide], on KRAS(G12C) [1], the 50% degradation concentration (DC50) was above 1000 nM. Also, in experiment [2], the EC50 was below 100 nM. On KRAS(G12C) [3], the IC50 is below 100 nM.
`C=CC(=O)N1CCN(c2nc(OC[C@@H]3C[C@H](N4CCC5(CCN(Cc6ccc(-n7c(C(=O)NCC)nnc7-c7cc(C(C)C)c(O)cc7O)cc6)CC5)CC4)CN3C)nc3c2CCN(c2cccc4cccc(Cl)c24)C3)C[C@@H]1CC#N` [Compound 259, 4-[4-({9-[(3S,5S)-5-({[7-(8-chloronaphthalen-1-yl)-4-[(3S)-3-(cyanomethyl)-4-(prop-2-enoyl)piperazin-1-yl]-5H,6H,8H-pyrido[3,4-d]pyrimidin-2-yl]oxy}methyl)-1-methylpyrrolidin-3-yl]-3,9-diazaspiro[5.5]undecan-3-yl}methyl)phenyl]-5-(2,4-di hydroxy-5-isopropylphenyl)-N-ethyl-1,2,4-triazole-3-carboxamide] displayed a 50% degradation concentration (DC50) on KRAS(G12C) [1] below 100 nM. The compound also returned a half-maximal effective concentration (EC50) in experiment [2] below 100 nM. Besides, the IC50 on KRAS(G12C) [3] was below 100 nM.
